Source: PubChem BioAssay AID330 (DTP/NCI, 2004)
Several values for one entry are separate records, joined by “and”; a condition that tells them apart may be missing. Identical values can stand only once. Inconclusive results and toxic doses are left out. The calls were made as follows: active = survival T/C of 150% or more; inactive = T/C below 125% in these data. Square brackets hold non-standard residues; d marks the D form. Peptide text beside a SMILES is read from it. Ac5c = NC1(C(=O)O)CCCC1

Test system: P388 leukemia ip, CD2F1 mice, survival T/C
Assay: NCI In Vivo Anticancer Drug Screen. Data for tumor model P388 Leukemia (intraperitoneal) in CD2F1 (CDF1) mice
Conditions: endpoint: median survival time, higher = longer survival
Procedure, shortened: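 Mice carrying the transplanted tumor received test compound or vehicle. Survival was recorded in each group, and the value is the treated-group measurement divided by that of the vehicle-treated control group.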

[1] = dose: 50.0 mg/kg/injection, schedule: Q01DX005 (ip), vehicle: saline with Tween-80
[2] = dose: 100.0 mg/kg/injection, schedule: Q01DX005 (ip), vehicle: saline with Tween-80
[3] = dose: 200.0 mg/kg/injection, schedule: Q01DX005 (ip), vehicle: saline with Tween-80
[4] = dose: 60.0 mg/kg/injection, schedule: Q01DX005 (ip), vehicle: saline with Tween-80
[5] = dose: 120.0 mg/kg/injection, schedule: Q01DX005 (ip), vehicle: saline with Tween-80
[6] = dose: 240.0 mg/kg/injection, schedule: Q01DX005 (ip), vehicle: saline with Tween-80
[7] = dose: 50.0 mg/kg/injection, schedule: Q01DX009 (ip), vehicle: saline with Tween-80
[8] = dose: 100.0 mg/kg/injection, schedule: Q01DX009 (ip), vehicle: saline with Tween-80
[9] = dose: 200.0 mg/kg/injection, schedule: Q01DX009 (ip), vehicle: saline with Tween-80
[10] = dose: 100.0 mg/kg/injection, schedule: Q04DX003 (ip), vehicle: saline with Tween-80

Measured: T/C

O=C(NCN1CCCCC1)c1ccccc1
inactive: dose: 25.0 mg/kg/injection, schedule: Q01DX005 (ip), vehicle: saline with Tween-80 93 % of control and 95 % of control | [1] 98 % of control and 101 % of control and 105 % of control | [2] 102 % of control and 104 % of control | [3] 102 % of control and 113 % of control

CCOC(=O)c1c(C)csc1NC(=O)CSCC(=O)OC
inactive: [4] 99 % of control | [5] 100 % of control | [6] 94 % of control

CC(=O)OCC(C)[C@H](C)C(=O)C1OCOC(C2CC(=O)NC(=O)C2)[C@@H]1OC(C)=O (stereo not given in full)
inactive: dose: 0.01 mg/kg/injection, schedule: Q01DX009 (ip), vehicle: distilled water + alcohol 100 % of control | dose: 0.03 mg/kg/injection, schedule: Q01DX009 (ip), vehicle: distilled water + alcohol 98 % of control | dose: 0.06 mg/kg/injection, schedule: Q01DX009 (ip), vehicle: distilled water + alcohol 98 % of control | dose: 0.12 mg/kg/injection, schedule: Q01DX009 (ip), vehicle: distilled water + alcohol 100 % of control

NC(=O)c1ccccc1NC(=O)c1ccccc1C(=O)O
inactive: [7] 100 % of control and 101 % of control | [8] 99 % of control and 103 % of control | [9] 101 % of control and 103 % of control | dose: 400.0 mg/kg/injection, schedule: Q01DX009 (ip), vehicle: saline with Tween-80 100 % of control and 101 % of control

[N-]=[N+]=C(S(=O)(=O)O)S(=O)(=O)O
inactive: dose: 50.0 mg/kg/injection, schedule: Q01DX009 (ip), vehicle: saline 107 % of control | dose: 100.0 mg/kg/injection, schedule: Q01DX009 (ip), vehicle: saline 112 % of control | dose: 200.0 mg/kg/injection, schedule: Q01DX009 (ip), vehicle: saline 107 % of control | dose: 400.0 mg/kg/injection, schedule: Q01DX009 (ip), vehicle: saline 107 % of control

O=C(CN1CCC(O)(c2ccc(F)cc2)CC1)N1CCN(C/C=C/c2ccccc2)CC1
inactive: dose: 60.0 mg/kg/injection, schedule: Q01DX005 (ip), vehicle: Klucel (hydroxypropylcellulose) (HPC) 96 % of control | dose: 120.0 mg/kg/injection, schedule: Q01DX005 (ip), vehicle: Klucel (hydroxypropylcellulose) (HPC) 95 % of control | dose: 240.0 mg/kg/injection, schedule: Q01DX005 (ip), vehicle: Klucel (hydroxypropylcellulose) (HPC) 95 % of control

Nc1nc(N)c2cc(S(=O)(=O)c3cccc(C(F)(F)F)c3)ccc2n1
inactive: [7] 113 % of control | [8] 117 % of control | [9] 106 % of control

COc1ccc2c(c1)OC1CC2NC(N)=N1 (stereo not given)
inactive: dose: 6.25 mg/kg/injection, schedule: Q01DX009 (ip), vehicle: saline 100 % of control | dose: 12.5 mg/kg/injection, schedule: Q01DX009 (ip), vehicle: saline 107 % of control | dose: 25.0 mg/kg/injection, schedule: Q01DX009 (ip), vehicle: saline 109 % of control

COC(=O)c1c(C(=O)Cc2cc3c(cc2CCN(C)C)OCO3)ccc(OC)c1OC
inactive: dose: 12.5 mg/kg/injection, schedule: Q01DX001 (ip), vehicle: saline + alcohol 99 % of control | dose: 25.0 mg/kg/injection, schedule: Q01DX001 (ip), vehicle: saline + alcohol 100 % of control | dose: 50.0 mg/kg/injection, schedule: Q01DX001 (ip), vehicle: saline + alcohol 101 % of control

Cc1cc2[nH]c(Cl)c(/C=N/NC(N)=S)c2cc1O
inactive: dose: 100.0 mg/kg/injection, schedule: Q01DX001 (ip), vehicle: Klucel (hydroxypropylcellulose) (HPC) 99 % of control | dose: 200.0 mg/kg/injection, schedule: Q01DX001 (ip), vehicle: Klucel (hydroxypropylcellulose) (HPC) 99 % of control | dose: 400.0 mg/kg/injection, schedule: Q01DX001 (ip), vehicle: Klucel (hydroxypropylcellulose) (HPC) 97 % of control

COc1c(Br)cc(/C=C(/C)[N+](=O)[O-])cc1Br
inactive: dose: 25.0 mg/kg/injection, schedule: Q04DX003 (ip), vehicle: saline with Tween-80 112 % of control | dose: 50.0 mg/kg/injection, schedule: Q04DX003 (ip), vehicle: saline with Tween-80 106 % of control | [10] 122 % of control

COC(=O)C1=C(C(=O)OC)[C](C(=O)c2ccccc2)([Sn]([CH3])([CH3])[CH3])N=N1 (stereo not given)
inactive: dose: 0.78 mg/kg/injection, schedule: Q01DX009 (ip), vehicle: saline 92 % of control | dose: 1.56 mg/kg/injection, schedule: Q01DX009 (ip), vehicle: saline 89 % of control | dose: 3.12 mg/kg/injection, schedule: Q01DX009 (ip), vehicle: saline 93 % of control

Cc1cc(=O)n(-c2ccc([N+](=O)[O-])cc2)c(C)c1C(=O)O
inactive: [1] 98 % of control | [2] 103 % of control | [3] 106 % of control

CN=C(NC)c1ccc(NC(=O)c2cc(OC)cc(C(=O)Nc3ccc(C(=NC)NC)cc3)c2)cc1
inactive: dose: 6.25 mg/kg/injection, schedule: Q01DX005 (ip), vehicle: Klucel (hydroxypropylcellulose) (HPC) 100 % of control | dose: 12.5 mg/kg/injection, schedule: Q01DX005 (ip), vehicle: Klucel (hydroxypropylcellulose) (HPC) 110 % of control | dose: 25.0 mg/kg/injection, schedule: Q01DX005 (ip), vehicle: Klucel (hydroxypropylcellulose) (HPC) 110 % of control

C=C(C)[C@@H]1CCc2c(O)c(O)c(=O)cc(C)c2C1
inactive: dose: 1.75 mg/kg/injection, schedule: Q01DX009 (ip), vehicle: saline 108 % of control | dose: 3.5 mg/kg/injection, schedule: Q01DX009 (ip), vehicle: saline 112 % of control and 113 % of control | dose: 7.0 mg/kg/injection, schedule: Q01DX009 (ip), vehicle: saline 101 % of control and 121 % of control | dose: 14.0 mg/kg/injection, schedule: Q01DX009 (ip), vehicle: saline 110 % of control | dose: 28.0 mg/kg/injection, schedule: Q01DX009 (ip), vehicle: saline 121 % of control | dose: 56.0 mg/kg/injection, schedule: Q01DX009 (ip), vehicle: saline 119 % of control

NC(CCC(N)C(=O)O)C(=O)O (stereo not given)
inactive: dose: 25.0 mg/kg/injection, schedule: Q01DX009 (ip), vehicle: Klucel (hydroxypropylcellulose) (HPC) 97 % of control | dose: 50.0 mg/kg/injection, schedule: Q01DX009 (ip), vehicle: Klucel (hydroxypropylcellulose) (HPC) 93 % of control | dose: 100.0 mg/kg/injection, schedule: Q01DX009 (ip), vehicle: Klucel (hydroxypropylcellulose) (HPC) 87 % of control | dose: 200.0 mg/kg/injection, schedule: Q01DX009 (ip), vehicle: Klucel (hydroxypropylcellulose) (HPC) 86 % of control

O=C1OC(c2ccc(Cl)cc2)=N/C1=C\c1ccccc1
inactive: [7] 120 % of control | [8] 90 % of control | [9] 100 % of control

NC1(C(=O)NCC(=O)O)CCCC1 (H-[Ac5c]-Gly-OH)
inactive: dose: 50.0 mg/kg/injection, schedule: Q04DX003 (ip), vehicle: Klucel (hydroxypropylcellulose) (HPC) 99 % of control | dose: 100.0 mg/kg/injection, schedule: Q04DX003 (ip), vehicle: Klucel (hydroxypropylcellulose) (HPC) 99 % of control | dose: 200.0 mg/kg/injection, schedule: Q04DX003 (ip), vehicle: Klucel (hydroxypropylcellulose) (HPC) 97 % of control | dose: 400.0 mg/kg/injection, schedule: Q04DX003 (ip), vehicle: Klucel (hydroxypropylcellulose) (HPC) 112 % of control

Nc1c(Br)cc2c(c1Br)Cc1cc(Br)ccc1-2
inactive: [10] 104 % of control | dose: 200.0 mg/kg/injection, schedule: Q04DX003 (ip), vehicle: saline with Tween-80 109 % of control | dose: 400.0 mg/kg/injection, schedule: Q04DX003 (ip), vehicle: saline with Tween-80 90 % of control

Cc1nc2c(nc1C)C(=O)c1cc(O)ccc1C2=O
inactive: dose: 50.0 mg/kg/injection, schedule: Q01DX005 (ip), vehicle: Klucel (hydroxypropylcellulose) (HPC) 101 % of control | dose: 100.0 mg/kg/injection, schedule: Q01DX005 (ip), vehicle: Klucel (hydroxypropylcellulose) (HPC) 104 % of control | dose: 200.0 mg/kg/injection, schedule: Q01DX005 (ip), vehicle: Klucel (hydroxypropylcellulose) (HPC) 100 % of control

CN=C(c1ccc(NC(=O)c2cc(C(=O)Nc3ccc(C(=NC)N(C)C)cc3)cc([N+](=O)[O-])c2)cc1)N(C)C
inactive: dose: 6.25 mg/kg/injection, schedule: Q01DX005 (ip), vehicle: saline 101 % of control | dose: 12.5 mg/kg/injection, schedule: Q01DX005 (ip), vehicle: saline 98 % of control

O=C1NC(=O)C2(OC3c4ccccc4C=NN3C3=C2C(=O)CC3)C(=O)N1 (stereo not given)
inactive: dose: 100.0 mg/kg/injection, schedule: Q01DX001 (ip), vehicle: saline with Tween-80 101 % of control | dose: 200.0 mg/kg/injection, schedule: Q01DX001 (ip), vehicle: saline with Tween-80 100 % of control | dose: 400.0 mg/kg/injection, schedule: Q01DX001 (ip), vehicle: saline with Tween-80 104 % of control

COc1ccc(/C=C/C(=O)C(C)(C)Br)cc1
inactive: [4] 101 % of control | [5] 101 % of control | [6] 103 % of control

CC1(C)CC(COC(=O)c2c3ccccc3c3ccc4cccc5ccc2c3c54)CC(C)(C)N1O
inactive: [7] 98 % of control | [8] 106 % of control | [9] 91 % of control
